Results taken from US20230295103A1 (priority 2020, published 2023).
In brackets after ≈: the same amount, converted by molar mass.

Experiments:
[1] = test system: E. coli (ATCC 8739), B. subtilis (ATCC 6633), P. aeruginosa (ATCC 9027), S. aureus (ATCC 6538P), H. pylori (ATCC43504), C. albicans (ATCC 200498); format: cell-based
[2] = test system: large panel of bacteria including Gram+ and Gram- bacteria and Mycobacterium as well as fungi associated to plant infection; format: cell-based
B. cepacia = experiment: microbe, parasite or virus in culture; format: cell-based; conditions: Burkholderia cepacia, read-out: Minimal Inhibitory Concentration (MIC)
B. mallei = experiment: microbe, parasite or virus in culture; format: cell-based; conditions: Burkholderia mallei, read-out: Minimal Inhibitory Concentration (MIC)
B. pseudomallei = experiment: microbe, parasite or virus in culture; format: cell-based; conditions: Burkholderia pseudomallei, read-out: Minimal Inhibitory Concentration (MIC)
[3] = test system: Pseudomonas syringae (DSM 10604); experiment: microbe, parasite or virus in culture; format: cell-based; conditions: DSM10604, read-out: Minimal Inhibitory Concentration (MIC)
[4] = test system: Streptomyces roietensis (DSM 101729); experiment: microbe, parasite or virus in culture; format: cell-based; conditions: DSM101729, read-out: Minimal Inhibitory Concentration (MIC)
[5] = test system: human cells A498, BEAS-2B, Caco-2, HaCaT, HepG2, HUVEC, IMR90, N87
[6] = test system: human liver cell line HepG2 (ATCC HB-8065); experiment: cells; conditions: HepG2, 48 h, read-out: IC50 on the viability of HepG2 cells
[7] = test system: human liver cell line HepG2 (ATCC HB-8065)
[8] = test system: P. aeruginosa (ATCC 9027); format: cell-based, Pseudomonas aeruginosa
Erwina cacticida = conditions: cited from earlier work
Phoma medicaginis = conditions: cited from earlier work

Molecule	MIC (B. cepacia)	MIC (B. mallei)	MIC (B. pseudomallei)	MIC [3]	MIC [4]	further results
CC(=O)Nc1ccc2c(c1)C(=O)/C(=C/c1ccccc1)O2						melting point: 241 °C
CC(=O)Nc1ccc2c(c1)C(=O)/C(=C/c1cccc(OCc3ccccc3)c1)O2 [A7, (Z)-N-(2-(3-(benzyloxy)benzylidene)-3-oxo-2,3-dihydrobenzofuran-5-yl)acetamide]	3.12 to 12.5 µM (≈ 1.2 to 4.82 µg/mL)	1.5 to 12.5 µM (≈ 0.578 to 4.82 µg/mL)	1.5 to 12.5 µM (≈ 0.578 to 4.82 µg/mL)	1.5 to 3.12 µM (≈ 0.578 to 1.2 µg/mL)	6.25 to 12.5 µM (≈ 2.41 to 4.82 µg/mL)	antimicrobial activity on tested strains (ranking) [1]: the more active; antimicrobial activity, spectrum [2]: confirmed the activity; Therapeutic index (TI) or safe factor (SF) [5]: 38-4017; mean of TI/SF [5]: 370
CC(=O)Nc1ccc2c(c1)C(=O)/C(=C/c1ccc(OCc3ccccc3)c(OCc3ccccc3)c1)O2 [AD-1-49, (Z)-N-(2-(3,4-bis(benzyloxy)benzylidene)-3-oxo-2,3-dihydrobenzofuran-5-yl)acetamide]						IC50 [6]: > 250 µM
COc1cccc(/C=C2\Oc3ccc(C(=O)O)cc3C2=O)c1 [AD-1-61, (2Z)-2-(3-methoxybenzylidene)-3-oxo-2,3-dihydro-1-benzofuran-5-carboxylic acid]						IC50 [6]: > 250 µM
CN(C)c1ccc(/C=C2\Oc3ccc(C(=O)O)cc3C2=O)cc1 [AD-1-62, (2Z)-2-[4-(dimethylamino)benzylidene]-3-oxo-2,3-dihydro-1-benzofuran-5-carboxylic acid]						IC50 [6]: > 250 µM
Nc1ccc2c(c1)C(=O)/C(=C/c1cccc(Oc3ccccc3)c1)O2 [B1, (Z)-5-amino-2-(3-phenoxybenzylidene)benzofuran-3(2H)-one]	3.12 to 12.5 µM (≈ 1.03 to 4.12 µg/mL)	1.5 to 12.5 µM (≈ 0.494 to 4.12 µg/mL)	1.5 to 12.5 µM (≈ 0.494 to 4.12 µg/mL)	1.5 to 3.12 µM (≈ 0.494 to 1.03 µg/mL)	6.25 to 12.5 µM (≈ 2.06 to 4.12 µg/mL)	
CC(=O)Nc1ccc2c(c1)C(=O)/C(=C/c1ccc(OC(C)C)cc1)O2 [B5, (Z)-N-(2-(4-isopropoxybenzylidene)-3-oxo-2,3-dihydrobenzofuran-5-yl)acetamide]	3.12 to 12.5 µM (≈ 1.05 to 4.22 µg/mL)	1.5 to 12.5 µM (≈ 0.506 to 4.22 µg/mL)	1.5 to 12.5 µM (≈ 0.506 to 4.22 µg/mL)	1.5 to 3.12 µM (≈ 0.506 to 1.05 µg/mL)	6.25 to 12.5 µM (≈ 2.11 to 4.22 µg/mL)	antimicrobial activity on tested strains (ranking) [1]: the more active; antimicrobial activity, spectrum [2]: confirmed the activity; Therapeutic index (TI) or safe factor (SF) [5]: 38-4017; mean of TI/SF [5]: 103
CC(=O)Nc1ccc2c(c1)C(=O)/C(=C/c1ccc(C(=O)O)cc1)O2 [C4, (Z)-4-((5-acetamido-3-oxobenzofuran-2(3H)-ylidene)methyl)benzoic acid]		1.5 to 12.5 µM (≈ 0.485 to 4.04 µg/mL)	1.5 to 12.5 µM (≈ 0.485 to 4.04 µg/mL)			
COc1c(C)c(O)c(C)c2c1C(=O)/C(=C/c1ccccc1)O2 [C10, (Z)-2-benzylidene-6-hydroxy-4-methoxy-5,7-dimethylbenzofuran-3(2H)-one]		1.5 to 12.5 µM (≈ 0.444 to 3.7 µg/mL)	1.5 to 12.5 µM (≈ 0.444 to 3.7 µg/mL)			
COc1ccc(/C=C2\Oc3cc(N)ccc3C2=O)cc1 [C11, (Z)-6-amino-2-(4-methoxybenzylidene)benzofuran-3(2H)-one]	3.12 to 12.5 µM (≈ 0.834 to 3.34 µg/mL)	1.5 to 12.5 µM (≈ 0.401 to 3.34 µg/mL)	1.5 to 12.5 µM (≈ 0.401 to 3.34 µg/mL)	1.5 to 3.12 µM (≈ 0.401 to 0.834 µg/mL)	6.25 to 12.5 µM (≈ 1.67 to 3.34 µg/mL)	antimicrobial activity on tested strains (ranking) [1]: the more active; antimicrobial activity, spectrum [2]: confirmed the activity; Therapeutic index (TI) or safe factor (SF) [5]: 38-4017; mean of TI/SF [5]: 355
O=C1/C(=C/c2ccc(OCc3ccccc3)cc2OCc2ccccc2)Oc2ccccc21 [C12, (Z)-2-(2,4-bis(benzyloxy)benzylidene)benzofuran-3(2H)-one]	3.12 to 12.5 µM (≈ 1.36 to 5.43 µg/mL)	1.5 to 12.5 µM (≈ 0.652 to 5.43 µg/mL)	1.5 to 12.5 µM (≈ 0.652 to 5.43 µg/mL)			antimicrobial activity on tested strains (ranking) [1]: the more active; antimicrobial activity, spectrum [2]: confirmed the activity; Therapeutic index (TI) or safe factor (SF) [5]: 38-4017; mean of TI/SF [5]: 1169
COc1cc(/C=C2\Oc3ccc(NC(C)=O)cc3C2=O)cc(OC)c1OC [D1, (Z)-N-(3-oxo-2-(3,4,5-trimethoxybenzylidene)-2,3-dihydrobenzofuran-5-yl)acetamide]	3.12 to 12.5 µM (≈ 1.15 to 4.62 µg/mL)	1.5 to 12.5 µM (≈ 0.554 to 4.62 µg/mL)	1.5 to 12.5 µM (≈ 0.554 to 4.62 µg/mL)			melting point: 254 °C
COc1ccc(/C=C2\Oc3ccccc3C2=O)cc1 [D10, (Z)-2-(4-methoxybenzylidene)benzofuran-3(2H)-one]	3.12 to 12.5 µM (≈ 0.787 to 3.15 µg/mL)	1.5 to 12.5 µM (≈ 0.378 to 3.15 µg/mL)	1.5 to 12.5 µM (≈ 0.378 to 3.15 µg/mL)	1.5 to 3.12 µM (≈ 0.378 to 0.787 µg/mL)	6.25 to 12.5 µM (≈ 1.58 to 3.15 µg/mL)	
O=C1/C(=C/c2ccc(Oc3ccc4oc(-c5ccccc5)cc(=O)c4c3)cc2)Oc2ccccc21 [E5, (Z)-6-(4-((3-oxobenzofuran-2(3H)-ylidene)methyl)phenoxy)-2-phenyl-4H-chromen-4-one]				1.5 to 3.12 µM (≈ 0.688 to 1.43 µg/mL)	6.25 to 12.5 µM (≈ 2.87 to 5.73 µg/mL)	antimicrobial activity on tested strains (ranking) [1]: the more active; antimicrobial activity, spectrum [2]: confirmed the activity; Therapeutic index (TI) or safe factor (SF) [5]: 38-4017; mean of TI/SF [5]: 852
O=C(O)c1ccc2c(c1)C(=O)/C(=C/c1ccc(OCc3ccccc3)c(OCc3ccccc3)c1)O2 [MR1065, (Z)-2-(3,4-bis(benzyloxy)benzylidene)-3-oxo-2,3-dihydrobenzofuran-5-carboxylic acid]						Therapeutic index (TI) or safe factor (SF) [7]: 712.82
O=C(O)CCCCCOc1ccc(/C=C2\Oc3ccccc3C2=O)cc1 [MR1076, (Z)-6-(4-((3-oxobenzofuran-2(3H)-ylidene)methyl)phenoxy)hexanoic acid]						antimicrobial activity [8]: active; IC50 [6]: > 250 µM
cephalocerone						growth inhibition (Erwina cacticida): inhibit the growth
hispidol						inhibition of fungal pathogen (Phoma medicaginis): inhibit
hispidol-4′-O-β-D-glucoside						inhibition of fungal pathogen (Phoma medicaginis): inhibit
